Data reported in PMC12095047, “Transport of phenoxyacetic acid herbicides by PIN-FORMED auxin transporters” (Nature Plants, 2025).
Several values for one entry are separate records, joined by “and”; a condition that tells them apart may be missing. Equal values may be shown once. Read-outs that look alike come from different tables or passages of the source.

Key:
[1] = target: T1, PIN8 S55A (Arabidopsis thaliana, UniProt Q9LFP6, S55A); type: biochemical; details: for Imax / EC50: PIN8 S55A, Michaelis–Menten fit; for EC50: read-out: EC50 of peak current response; for Peak current: S55A, individual sensors
T1 construct: made in house
T1 sequence (Q9LFP6 whole entry S55A): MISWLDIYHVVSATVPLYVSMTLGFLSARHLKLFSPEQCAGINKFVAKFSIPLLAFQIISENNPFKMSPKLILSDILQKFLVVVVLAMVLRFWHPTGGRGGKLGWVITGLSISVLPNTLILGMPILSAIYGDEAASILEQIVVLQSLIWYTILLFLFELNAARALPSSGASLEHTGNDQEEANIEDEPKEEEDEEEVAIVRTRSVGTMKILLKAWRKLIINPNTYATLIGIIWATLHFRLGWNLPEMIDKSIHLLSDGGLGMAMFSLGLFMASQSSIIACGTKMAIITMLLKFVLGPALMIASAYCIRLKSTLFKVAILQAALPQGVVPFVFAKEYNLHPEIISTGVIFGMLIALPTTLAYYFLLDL
Protocol: (§1) SSM, using a SURFE2R N1 from Nanion Technologies, was conducted as described. In brief, soy polar lipid mix (38% phosphatidyl choline, 30% phosphatidyl ethanolamine, 18% phosphatidyl inositol, 7% phosphatidic acid and 7% other soy lipids) and 1-palmitoyl-2-oleoyl-sn-glycero-3-phosphocholin were purchased from Avanti. Liposomes were prepared in Ringer solution without Ca^2+ (115 mM NaCl, 2.5 mM KCl, 1 mM NaHCO3, 10 mM HEPES pH7.4, 1 mM MgCl2) and homogenized using a Lipsofast (Avestin) with a […]. Triton X-100 was added to the liposomes to a final concentration of 1% (v/v). Protein was added to liposomes to a calculated lipid-to-protein ratio (LPR) of 10 unless stated otherwise. The detergent was removed using 400 mg ml^−1 Bio Beads (BioRad) overnight at 4 °C in a rotary shaker. Proteoliposomes were frozen in liquid nitrogen and kept at −80 °C until use. Proteoliposomes were diluted 1:5 in Ringer solution without Ca^2+, sonicated five times and then applied to the sensors by centrifugation (30 min, 3,000 g, 4 °C). Non-activating buffer was Ringer solution without Ca^2+ as described unless specified otherwise, and activating buffer contained the substrate of interest. In most instances we used a single-solution exchange experiment. In this case proteoliposomes, immobilized on the supported membrane, are kept in non-activating buffer as specified. At the beginning of the experiment the non-activating buffer is replaced with fresh identical non-activating buffer, and after 1 s, activating buffer (same buffer containing substrate) is added. After another second, the buffer is replaced with non-activating buffer again. Current response is recorded throughout the entire 3 s. For competition or inhibition, the respective compound was present in non-activating and activating solutions. Each experiment was performed on at least two individual sensors. On each sensor each measurement consists of three technical replicates where the mean is calculated. KD values were determined as described previously. Briefly, the binding current induced by 100 µM NPA was recorded in the presence of different concentrations of the substrate under investigation ranging between 0 µM and 1,000 µM present in the activating solution and the non-activating solution (Extended Data Fig. 5b). […] The maximum peak current was then plotted as a function of the concentration of the substrate under investigation and plotted against the degree of inhibition and fitted with a one-site binding model using GraphPad Prism V10.4.1 The half maximal concentration corresponds to the KD of the substrate under investigation.
(§2) The protocol for expression and purification of AtPIN8 protein (Uniprot: Q9LFP6) in lauryl maltose neopentyl glycol was described previously. All point mutants were generated using Q5 Site-Directed mutagenesis kit (New England Biolabs). The C-flat Holey Carbon grids (CF-1.2/1.3, Cu-300 mesh) were glow-discharged for 45 s at 15 mA in a GloQube Plus (Quorum). […] After 1 h of incubation on ice, the sample was centrifuged at 16,000 g for 15 min before blotting to remove precipitation. A drop of 4 µl of each sample was applied to the glow-discharged grids, blotted with a Vitrobot Mark IV (ThermoFisher Scientific) using the following settings (temperature 4 °C, 100% humidity, blot time of 4 s, blot force −1) and vitrified in liquid ethane.

[2] = target: T2, PIN8 Y150F (Arabidopsis thaliana, UniProt Q9LFP6, Y150F); type: biochemical; details: PIN8 Y150F, Michaelis–Menten fit; for EC50: read-out: EC50 of peak current response
T2 construct: made in house
T2 sequence (Q9LFP6 whole entry Y150F): as the sequence (Q9LFP6 whole entry S55A) above, with A55S, Y150F counted along it
Protocol: as §1, §2

[3] = target: T3, PIN8 S266A (Arabidopsis thaliana, UniProt Q9LFP6, S266A); type: biochemical; details: PIN8 S266A, Michaelis–Menten fit; for EC50: read-out: EC50 of peak current response
T3 construct: made in house
T3 sequence (Q9LFP6 whole entry S266A): as the sequence (Q9LFP6 whole entry S55A) above, with A55S, S266A counted along it
Protocol: as §1, §2

[4] = target: T4, PIN8 S55A/S146A (Arabidopsis thaliana, UniProt Q9LFP6, S146A/S55A); type: biochemical; details: Michaelis–Menten fit; for EC50: read-out: EC50 of peak current response
T4 construct: made in house
T4 sequence (Q9LFP6 whole entry S55A/S146A): as the sequence (Q9LFP6 whole entry S55A) above, with S146A counted along it
Protocol: as §1, §2

[5] = target: T5, PIN8 N223A (Arabidopsis thaliana, UniProt Q9LFP6, N223A); type: biochemical; details: N223A
T5 construct: made in house
T5 sequence (Q9LFP6 whole entry N223A): as the sequence (Q9LFP6 whole entry S55A) above, with A55S, N223A counted along it
Protocol: as §1, §2

[6] = target: T6, PIN8 I51Y (Arabidopsis thaliana, UniProt Q9LFP6, I51Y); type: biochemical; details: Michaelis–Menten fit; for EC50: read-out: EC50 of peak current response
T6 construct: made in house
T6 sequence (Q9LFP6 whole entry I51Y): as the sequence (Q9LFP6 whole entry S55A) above, with I51Y, A55S counted along it
Protocol: as §1, §2

[7] = target: T7, wild-type PIN8 proteoliposomes (Arabidopsis thaliana, UniProt Q9LFP6); test: SSM electrophysiology, peak width (FWHM) of current response at LPR10 and LPR50; type: biochemical; details: for Rel. FWHM (% of LPR10): replicates; for peak width of SSM-based current response as a function of lipid-to-protein ratio (LPR): LPR10 versus LPR50
T7 construct: made in house
T7 sequence (Q9LFP6 1-367): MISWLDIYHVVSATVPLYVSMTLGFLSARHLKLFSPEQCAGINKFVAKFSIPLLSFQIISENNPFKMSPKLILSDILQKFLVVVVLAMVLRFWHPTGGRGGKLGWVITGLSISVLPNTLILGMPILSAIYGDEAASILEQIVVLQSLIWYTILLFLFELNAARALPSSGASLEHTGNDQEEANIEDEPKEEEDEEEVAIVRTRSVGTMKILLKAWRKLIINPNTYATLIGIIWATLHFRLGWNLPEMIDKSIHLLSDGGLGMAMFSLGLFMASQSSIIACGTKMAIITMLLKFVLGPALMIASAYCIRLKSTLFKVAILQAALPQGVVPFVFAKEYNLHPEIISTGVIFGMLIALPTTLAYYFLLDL
Protocol: as §1

[8] = target: T8, A. thaliana PIN8 (Arabidopsis thaliana, UniProt Q9LFP6); test: SSM electrophysiology, peak current response on PIN8 proteoliposomes; type: biochemical; details: for Peak current: individual sensors; for EC50 / maximal current Imax: WT PIN8 proteoliposomes, Michaelis–Menten fit
T8 construct: made in house
T8 sequence (Q9LFP6 1-367): T7 sequence (Q9LFP6 1-367)
Protocol: as §1

[9] = target: T9, PIN8 (Arabidopsis thaliana, UniProt Q9LFP6); test: SSM electrophysiology, KD by inhibition of the NPA binding current
T9 construct: made in house
T9 sequence (Q9LFP6 1-367): T7 sequence (Q9LFP6 1-367)
Protocol: as §1

[10] = Peak current, sheet F2A (Fig. 2a, KD of substrate binding), individual sensors

Compound: O=C(O)COc1ccc(Cl)cc1 [4-CPA, 4-chlorophenoxyacetic acid]
- Imax [1]: 11 ± 1 nA
- EC50 [1]: 328 ± 15 µM
- Peak current ([1]; 5 µM substrate): 0.2701 nA and 0.2897 nA and 0.3406 nA
- Peak current ([1]; 20 µM substrate): 0.9459 nA and 0.8941 nA and 1.017 nA
- Peak current ([1]; 50 µM substrate): 1.817 nA and 1.664 nA and 1.992 nA
- Peak current ([1]; 100 µM substrate): 2.935 nA and 2.612 nA and 3.1231 nA
- Peak current ([1]; 500 µM substrate): 6.5808 nA and 5.777 nA and 6.881 nA
- Peak current ([1]; 1000 µM substrate): 8.474 nA and 7.36 nA and 8.719 nA
- Peak current ([1]; 2000 µM substrate): 10.4298 nA and 8.998 nA and 10.8546 nA
- Imax [2]: 5 ± 0.9 nA
- EC50 [2]: 710 ± 228 µM
- Imax [3]: 7 ± 2 nA
- EC50 [3]: 2100 ± 290 µM
- Imax [4]: 11 ± 0.9 nA
- EC50 [4]: 81 ± 3 µM
- fold-change difference to the respective EC50 of wildtype PIN8 [5]: completely abolishes binding
- Imax [6]: 3 ± 0.8 nA
- EC50 [6]: 1040 ± 252 µM
- Rel. FWHM (% of LPR10) ([7]; LPR10): 1.033 % of LPR10 and 0.9836 % of LPR10 (2×)
- peak width of SSM-based current response as a function of lipid-to-protein ratio (LPR) [7]: vary with lipid-to-protein ratio (LPR)
- Rel. FWHM (% of LPR10) ([7]; LPR50): 1.475 % of LPR10 (2×) and 1.328 % of LPR10 and 1.377 % of LPR10
- Peak current ([8]; 2 mM 4-CPA, absence of NPA): 6.735 nA and 9.149 nA
- Peak current ([8]; 2 mM 4-CPA, presence of 20 µM NPA): 3.357 nA
- EC50 [8]: 800 ± 200 µM
- maximal current Imax [8]: 12 ± 2 nA
- Peak current ([8]; WT, 5 µM substrate): 0.07132 nA and 0.09263 nA and 0.01805 nA
- Peak current ([8]; WT, 20 µM substrate): 0.2459 nA and 0.3985 nA and 0.3482 nA
- Peak current ([8]; WT, 50 µM substrate): 0.634 nA and 0.9337 nA and 0.8708 nA
- Peak current ([8]; WT, 100 µM substrate): 1.233 nA and 1.738 nA and 1.591 nA
- Peak current ([8]; WT, 500 µM substrate): 3.698 nA and 5.58 nA and 4.779 nA
- Peak current ([8]; WT, 1000 µM substrate): 5.355 nA and 8.269 nA and 6.9634 nA
- Peak current ([8]; WT, 2000 µM substrate): 7.157 nA and 9.571 nA and 9.556 nA
- inhibition at 5 µM ([9]; 5 µM substrate, 100 µM NPA, individual sensors, read-out: Rel. Inhibition of NPA peak currents): 3.03%
- inhibition at 20 µM ([9]; 20 µM substrate, 100 µM NPA, individual sensors, read-out: Rel. Inhibition of NPA peak currents): 9.7%
- inhibition at 50 µM ([9]; 50 µM substrate, 100 µM NPA, individual sensors, read-out: Rel. Inhibition of NPA peak currents): 16%
- inhibition at 100 µM ([9]; 100 µM substrate, 100 µM NPA, individual sensors, read-out: Rel. Inhibition of NPA peak currents): 24.7%
- inhibition at 500 µM ([9]; 500 µM substrate, 100 µM NPA, individual sensors, read-out: Rel. Inhibition of NPA peak currents): 58.6%
- inhibition at 1000 µM ([9]; 1000 µM substrate, 100 µM NPA, individual sensors, read-out: Rel. Inhibition of NPA peak currents): 73.5%
- inhibition at 2000 µM ([9]; 2000 µM substrate, 100 µM NPA, individual sensors, read-out: Rel. Inhibition of NPA peak currents): 82.1%
- inhibition at 5000 µM ([9]; 5000 µM substrate, 100 µM NPA, individual sensors, read-out: Rel. Inhibition of NPA peak currents): 96.6%
- lower binding affinity compared to IAA ([9]; KD compared to IAA): ~ 8 fold
- Kd [9, 10]: 319 µM and 330 µM and 262 µM

Compound: O=C(O)COc1ccc(Cl)cc1Cl [2,4-D, 2,4-dichlorophenoxyacetic acid]
- Imax [1]: 6 ± 0.6 nA
- EC50 [1]: 95 ± 36 µM
- Peak current ([1]; 5 µM substrate): 0.5771 nA and 0.4543 nA and 0.3145 nA and 0.4609 nA
- Peak current ([1]; 20 µM substrate): 1.612 nA and 1.263 nA and 1.114 nA and 1.2922 nA
- Peak current ([1]; 50 µM substrate): 2.6274 nA and 2.193 nA and 2.012 nA and 0.000174 nA
- Peak current ([1]; 100 µM substrate): 3.62 nA and 3.055 nA and 2.8112 nA and 3.289 nA
- Peak current ([1]; 500 µM substrate): 5.907 nA and 5.083 nA and 4.589 nA and 5.296 nA
- Peak current ([1]; 1000 µM substrate): 6.235 nA and 5.542 nA and 4.855 nA and 5.533 nA
- Peak current ([1]; 2000 µM substrate): 6.017 nA and 5.654 nA and 4.774 nA and 5.542 nA
- Imax [2]: 8 ± 2 nA
- EC50 [2]: 816 ± 275 µM
- Imax [3]: 12 ± 0.7 nA
- EC50 [3]: 774 ± 70 µM
- Imax [4]: 9 ± 2 nA
- EC50 [4]: 38 ± 6 µM
- fold-change difference to the respective EC50 of wildtype PIN8 [5]: completely abolishes binding
- Imax [6]: 3 ± 0.8 nA
- EC50 [6]: 641 ± 77 µM
- peak width of SSM-based current response as a function of lipid-to-protein ratio (LPR) [7]: vary with lipid-to-protein ratio (LPR)
- Peak current ([8]; 100 μM 2,4-D, absence of NPA): 3.226 nA and 5.875 nA
- Peak current ([8]; 100 μM 2,4-D, presence of 20 µM NPA): 0.9715 nA and 1.501 nA and 1.34 nA
- EC50 [8]: 180 µM and 179 µM
- maximal current Imax [8]: 17 ± 2 nA
- Peak current ([8]; WT, 5 µM substrate): 0.6835 nA and 0.6464 nA and 0.7573 nA
- Peak current ([8]; WT, 20 µM substrate): 2.106 nA and 1.934 nA and 2.262 nA
- Peak current ([8]; WT, 50 µM substrate): 4.032 nA and 3.705 nA
- Peak current ([8]; WT, 2000 µM substrate): 15.4919 nA and 14.1952 nA and 17.3107 nA
- Kd [9, 10]: 64.4 µM and 50.6 µM and 62.3 µM
- Kd ([9]; inhibition of peak current elicited by 100 µM NPA, read-out: KD of substrate binding by PIN8): 59 ± 7 µM
- inhibition at 20 µM ([9]; read-out: Rel. Inhibition of NPA peak currents, 20 µM substrate, 100 µM NPA, individual sensors): 22.5%
- inhibition at 50 µM ([9]; read-out: Rel. Inhibition of NPA peak currents, 50 µM substrate, 100 µM NPA, individual sensors): 46.2%
- inhibition at 100 µM ([9]; read-out: Rel. Inhibition of NPA peak currents, 100 µM substrate, 100 µM NPA, individual sensors): 65.6%
- inhibition at 250 µM ([9]; read-out: Rel. Inhibition of NPA peak currents, 250 µM substrate, 100 µM NPA, individual sensors): 83.2%
- inhibition at 500 µM ([9]; read-out: Rel. Inhibition of NPA peak currents, 500 µM substrate, 100 µM NPA, individual sensors): 91.1%
- inhibition at 1000 µM ([9]; read-out: Rel. Inhibition of NPA peak currents, 1000 µM substrate, 100 µM NPA, individual sensors): 95.2%
